Reference: PMC7999448, “Antibacterial and COX-2 Inhibitory Tetrahydrobisbenzylisoquinoline Alkaloids from the Philippine Medicinal Plant Phaeanthus ophthalmicus” (Plants, 2021)

Tests used:
ovine COX-1 = molecular target: T1, ovine COX-1 (Ovis aries, UniProt P05979); assay: colorimetric peroxidase assay, TMPD oxidation at […] nm (Cayman kit); assay type: biochemical
T1 construct: gene PTGS1
T1 sequence (P05979 25-600): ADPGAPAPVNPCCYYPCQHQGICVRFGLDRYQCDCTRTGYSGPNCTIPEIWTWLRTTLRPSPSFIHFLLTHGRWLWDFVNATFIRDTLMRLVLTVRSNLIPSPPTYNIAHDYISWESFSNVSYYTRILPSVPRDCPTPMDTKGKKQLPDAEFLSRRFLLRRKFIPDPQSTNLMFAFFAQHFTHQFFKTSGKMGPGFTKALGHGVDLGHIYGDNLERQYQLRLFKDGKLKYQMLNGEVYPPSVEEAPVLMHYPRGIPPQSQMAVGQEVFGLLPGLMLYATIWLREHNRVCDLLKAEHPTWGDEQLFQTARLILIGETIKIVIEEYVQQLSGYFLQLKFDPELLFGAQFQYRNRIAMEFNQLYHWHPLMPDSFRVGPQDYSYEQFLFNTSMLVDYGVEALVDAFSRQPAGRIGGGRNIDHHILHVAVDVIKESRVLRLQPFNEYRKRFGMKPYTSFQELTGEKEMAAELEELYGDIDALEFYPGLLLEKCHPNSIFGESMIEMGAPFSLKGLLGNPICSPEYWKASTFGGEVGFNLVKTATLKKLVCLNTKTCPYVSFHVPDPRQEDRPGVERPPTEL

ovine COX-2 = molecular target: T2, ovine COX-2 (Ovis aries, UniProt P79208); assay: as above; assay type: biochemical; settings: read-out: IC50 (μM) vs. COX / COX-1
T2 construct: gene PTGS2
T2 sequence (P79208 17-603): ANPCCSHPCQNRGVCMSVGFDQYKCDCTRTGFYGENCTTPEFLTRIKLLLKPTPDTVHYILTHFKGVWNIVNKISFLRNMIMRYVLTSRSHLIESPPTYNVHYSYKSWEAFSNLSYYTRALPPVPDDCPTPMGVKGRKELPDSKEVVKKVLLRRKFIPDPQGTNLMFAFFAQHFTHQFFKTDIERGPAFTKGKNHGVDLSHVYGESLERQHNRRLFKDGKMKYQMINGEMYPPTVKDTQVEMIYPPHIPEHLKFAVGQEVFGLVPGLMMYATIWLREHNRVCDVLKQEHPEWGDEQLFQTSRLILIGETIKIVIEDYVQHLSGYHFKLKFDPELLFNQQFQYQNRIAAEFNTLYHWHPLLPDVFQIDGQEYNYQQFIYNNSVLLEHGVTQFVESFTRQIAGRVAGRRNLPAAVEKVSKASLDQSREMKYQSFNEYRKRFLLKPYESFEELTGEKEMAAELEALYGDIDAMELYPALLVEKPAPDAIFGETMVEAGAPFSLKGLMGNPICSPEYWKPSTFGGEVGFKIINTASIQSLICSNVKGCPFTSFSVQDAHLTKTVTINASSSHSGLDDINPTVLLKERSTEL

IC50 (ovine COX-1): > 100 µM
IC50 (ovine COX-2): > 100 µM
Compound: COc1ccc2cc1Oc1ccc(cc1)C[C@H]1c3cc(c(OC)cc3CCN1C)Oc1c(OC)c(OC)cc3c1[C@H](C2)N(C)CC3 [compound 1, (+)-tetrandrine]
